Assay results reported in patent US6362369B1, “Phthalic acid diamide derivatives fluorine-containing aniline compounds as starting material, agricultural and horticultural insecticides, and a method for application of the insecticides” (Nihon Nohyaku Co., Ltd., priority 1997, dated 2002).

Legend:
[1] = tested on: diamondback moth (Plutella xylostella); test: Insecticidal effect on diamondback moth (Test Example 1); type: in vivo; conditions: for Insecticidal effect, Test Example 1 / Insecticidal effect (Test Example 1), judged from mortality: diamondback moth; for Insecticidal effect on diamondback moth (Test Example 1), judged grade: mortality judged according to the criterion shown in Test Example 1; for Insecticidal effect (Test Example 1), judged from mortality: judged by the criterion of Test Example 1
Method in brief: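 Triplicate groups of 10 insects were scored: six days after immersion of oviposited Chinese cabbage seedlings and holding at 25 °C post air-drying, hatched larvae were counted. Mortality derived from these counts and insecticidal effect judged by a set criterion.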

[2] = tested on: rice leafroller (Cnaphalocrocis medinalis); test: Insecticidal effect on rice leafroller (Test Example 3); type: in vivo; conditions: 500 ppm, 25° C., humidity 70%; for Insecticidal effect, Test Example 3: rice lamina immersed; for Insecticidal effect, Test Example 3 / Insecticidal effect on rice leafroller (Test Example 3), judged grade: four days after inoculation; for Insecticidal effect on rice leafroller (Test Example 3), judged grade / Insecticidal effect (Test Example 3), judged from mortality: rice lamina dip; for Insecticidal effect on rice leafroller (Test Example 3), judged grade: third-instar larvae; for Insecticidal effect (Test Example 3), judged from mortality: 4 days after inoculation
Procedure: Insecticidal effect on rice leafroller (Cnaphalocrocis medinalis)
After air-drying, the lamina was placed in a plastic Petri dish with a diameter of 9 cm whose bottom had been covered with a wetted filter paper. The lamina was inoculated with third-instar larvae of rice leafroller, after which the dish was allowed to stand in a room thermostated at 25° C. and having a humidity of 70%. Four days after the inoculation, the dead and alive were counted and the insecticidal effect was judged according to the criterion shown in Test Example 1. The test was carried out with triplicate groups of 10 insects.

[3] = judged by the mortality criterion of Test Example 1
[4] = third-instar larvae of rice leafroller
[5] = mortality judged by criterion of Test Example 1
[6] = rice leafroller third-instar larvae

Row | SMILES | Insecticidal effect on diamondback moth (Test Example 1), judged grade [1] | Insecticidal effect on rice leafroller (Test Example 3), judged grade [2] | Insecticidal effect, Test Example 1 [1, 5] | Insecticidal effect, Test Example 3 [2, 6] | further results
1 | Cc1ccc(Cl)cc1NC(=O)c1ccccc1C(=O)NC(C)C [compound 51] | – | – | – | – | Insecticidal effect, Test Example 1 [1, 3]: A (100); Insecticidal effect, Test Example 3 [2, 4]: A (100)
2 | Cc1cccc(NC(=O)c2cccc([N+](=O)[O-])c2C(=O)NC(C)C)c1C [compound 647] | A (100) | B (99-90) | – | – | –
3 | Cc1cc(C(F)(F)C(F)(F)F)ccc1NC(=O)c1cccc(I)c1C(=O)N1CCCC1 [compound 1047] | – | – | A (100) | A (100) | –
4 | Cc1cc(C(F)(F)C(F)(F)F)ccc1NC(=O)c1cccc(Cl)c1C(=O)NCCOc1cccc(Cl)c1 [compound 1370] | – | – | A (100) | A (100) | –
5 | CCNC(=O)c1cccc(I)c1C(=O)Nc1ccc(OC(F)(F)C(F)F)cc1C [compound 1057] | – | – | A (100) | A (100) | –
6 | Cc1cc(C(F)(F)C(F)(F)C(F)(F)F)ccc1NC(=O)c1c(F)cccc1C(=O)NC(C)C [compound 555] | A (100) | B (99-90) | – | – | –
7 | CC(C)NC(=O)c1ccc(Cl)cc1C(=O)Nc1ccc(Cl)cc1Cl [compound 187] | – | – | – | – | Insecticidal effect, Test Example 1 [1, 3]: A (100); Insecticidal effect, Test Example 3 [2, 4]: D (79-50)
8 | CCCCNC(=O)c1cccc(I)c1C(=O)Nc1ccc(C(F)(F)C(F)(F)F)cc1C [compound 946] | – | – | A (100) | A (100) | –
9 | CCCNC(=O)c1c(Cl)cccc1C(=O)Nc1ccc(C(F)(F)C(F)(F)F)cc1Cl [compound 1492] | – | – | – | – | Insecticidal effect (Test Example 1), judged from mortality [1]: A (100); Insecticidal effect (Test Example 3), judged from mortality [2, 4]: A (100)
10 | Cc1cc(C(F)(F)C(F)(F)F)ccc1NC(=O)c1c(C)cccc1C(=O)NC(C)C [compound 954] | – | – | A (100) | A (100) | –
11 | CCCN(CC)C(=O)c1c(F)cccc1C(=O)Nc1ccc(C(F)(F)C(F)(F)F)cc1Cl [compound 1584] | – | – | – | – | Insecticidal effect (Test Example 1), judged from mortality [1]: A (100); Insecticidal effect (Test Example 3), judged from mortality [2, 4]: A (100)
12 | CC(C)NC(=O)c1c(C(=O)Nc2ccc(F)c(Cl)c2)cccc1[N+](=O)[O-] [compound 643] | A (100) | A (100) | – | – | –
13 | CC(C)NC(=O)c1c(I)cccc1C(=O)Nc1ccc(C(F)(C(F)(F)F)C(F)(F)F)cc1Oc1ccccc1 [compound 1768] | – | – | – | – | Insecticidal effect (Test Example 1), judged from mortality [1]: A (100); Insecticidal effect (Test Example 3), judged from mortality [2, 4]: A (100)
14 | Cc1cc(Oc2ncc(C(F)(F)F)cc2Cl)ccc1NC(=O)c1c(Br)cccc1C(=O)NC(C)C [compound 336] | – | – | – | – | Insecticidal effect, Test Example 1 [1, 3]: A (100); Insecticidal effect, Test Example 3 [2, 4]: D (79-50)
15 | CC(C)(C)NC(=O)c1ccccc1C(=O)Nc1ccc(OC(F)(F)F)cc1Cl [compound 1021] | – | – | A (100) | A (100) | –
16 | Cc1cc(OC(F)(F)C(F)OC(F)(F)F)ccc1NC(=O)c1cccc(F)c1C(=O)NC(C)C (stereo not shown) [compound 515] | A (100) | C (89-80) | – | – | –
17 | Cc1cc(C(F)(F)C(F)(F)F)ccc1NC(=O)c1cccc(Cl)c1C(=O)NCc1cccnc1 [compound 1419] | – | – | A (100) | A (100) | –
18 | Cc1cc2oc(C(F)(F)F)nc2cc1NC(=O)c1cccc(I)c1C(=O)NC(C)C [compound 1641] | – | – | – | – | Insecticidal effect (Test Example 1), judged from mortality [1]: A (100); Insecticidal effect (Test Example 3), judged from mortality [2, 4]: A (100)
19 | COc1ccc(NC(=O)c2c(Cl)cccc2C(=O)NC(C)C)c(C)c1 [compound 218] | – | – | – | – | Insecticidal effect, Test Example 1 [1, 3]: A (100); Insecticidal effect, Test Example 3 [2, 4]: C (89-80)
20 | Cc1cc(C(F)(F)C(F)(F)F)ccc1NC(=O)c1cccc(Cl)c1C(=O)NCCc1cccc(Cl)c1 [compound 1358] | – | – | A (100) | C (89-80) | –
21 | CC(C)NC(=O)c1cccc(Cl)c1C(=O)Nc1ccc(C(C)(C)C)cc1 [compound 196] | – | – | – | – | Insecticidal effect, Test Example 1 [1, 3]: A (100); Insecticidal effect, Test Example 3 [2, 4]: D (79-50)

Row | SMILES | Insecticidal effect on diamondback moth (Test Example 1), judged grade [1] | Insecticidal effect on rice leafroller (Test Example 3), judged grade [2] | Insecticidal effect, Test Example 1 [1, 5] | Insecticidal effect, Test Example 3 [2, 6] | further results
22 | CCC(O)CNC(=O)c1c(Cl)cccc1C(=O)Nc1ccc(C(F)(F)C(F)(F)F)cc1C (stereo not shown) [compound 1318] | – | – | A (100) | A (100) | –
23 | COc1ccc(NC(=O)c2cccc(I)c2C(=O)NC(C)C)c(C)c1 [compound 376] | – | – | – | – | Insecticidal effect, Test Example 1 [1, 3]: A (100); Insecticidal effect, Test Example 3 [2, 4]: A (100)
24 | CCCNC(=O)c1c(C(=O)Nc2ccc(OC(F)F)cc2C)cccc1[N+](=O)[O-] [compound 17] | – | – | – | – | Insecticidal effect, Test Example 1 [1, 3]: A (100); Insecticidal effect, Test Example 3 [2, 4]: D (79-50)
25 | Cc1ccccc1CNC(=O)c1c(Cl)cccc1C(=O)Nc1ccc(C(F)(F)C(F)(F)F)cc1C [compound 1337] | – | – | A (100) | A (100) | –
26 | Cc1c(F)cccc1NC(=O)c1cccc(F)c1C(=O)NC(C)C [compound 494] | A (100) | A (100) | – | – | –
27 | Cc1cc(OC(F)F)ccc1NC(=O)c1ccc(F)cc1C(=O)NC(C)C [compound 531] | A (100) | A (100) | – | – | –
28 | Cc1cccc(Cl)c1NC(=O)c1cccc([N+](=O)[O-])c1C(=O)NC(C)C [compound 666] | A (100) | D (79-50) | – | – | –
29 | CC(C)NC(=O)c1ccccc1C(=O)Nc1ccc(F)cc1 [compound 23] | – | – | – | – | Insecticidal effect, Test Example 1 [1, 3]: A (100); Insecticidal effect, Test Example 3 [2, 4]: D (79-50)
30 | COCCNC(=O)c1cccc(I)c1C(=O)Nc1ccc(C(F)(F)C(F)(F)F)cc1C [compound 982] | – | – | A (100) | C (89-80) | –
31 | CC(C)NC(=O)c1ccccc1C(=O)Nc1ccc(S(=O)(=O)C(F)(F)F)cc1 [compound 1077] | – | – | A (100) | A (100) | –
32 | Cc1cc(OC(F)F)ccc1NC(=O)c1cc(F)ccc1C(=O)NC(C)C [compound 534] | A (100) | A (100) | – | – | –
33 | CC(C)NC(=O)c1c(F)cccc1C(=O)Nc1ccc(SC(F)(F)C(F)F)cc1 [compound 479] | A (100) | A (100) | – | – | –
34 | Cc1cc(OC(F)F)ccc1NC(=O)c1cccc([N+](=O)[O-])c1C(=O)NCCF [compound 863] | A (100) | B (99-90) | – | – | –
35 | Cc1cc(C(F)(F)C(F)(F)F)ccc1NC(=O)c1c(I)cccc1C(=O)NC(C)CO (stereo not shown) [compound 1465] | – | – | – | – | Insecticidal effect (Test Example 1), judged from mortality [1]: A (100); Insecticidal effect (Test Example 3), judged from mortality [2, 4]: A (100)
36 | CC(C)NC(=O)c1cccc(F)c1C(=O)Nc1ccc(C(F)(F)C(F)(F)F)cc1 [compound 892] | A (100) | A (100) | – | – | –
37 | CC(C)NC(=O)c1cccc(F)c1C(=O)Nc1cccc(Cl)c1Cl [compound 543] | A (100) | A (100) | – | – | –
38 | Cc1cc(SC(F)F)ccc1NC(=O)c1cccc([N+](=O)[O-])c1C(=O)NC(C)C [compound 722] | A (100) | A (100) | – | – | –
39 | CC(C)NC(=O)c1c(C(=O)Nc2ccccc2C(C)C)cccc1[N+](=O)[O-] [compound 603] | B (99-90) | C (89-80) | – | – | –
40 | CC(C)NC(=O)c1ccccc1C(=O)Nc1ccc(SC(F)(F)F)cc1 [compound 995] | – | – | A (100) | A (100) | –
41 | Cc1cc(Cl)ccc1NC(=O)c1c(F)cccc1C(=O)NC(C)C [compound 545] | A (100) | A (100) | – | – | –
